Assay results published in patent US8865770B2, “Carbamide peroxide treatments for the reproductive tract” (Vets Plus, Inc., priority 2011, dated 2014).

What was measured:
[1] = test system: metritis-causing organisms; test: In vitro killing of bacteria in uterine discharge from a cow with confirmed metritis; assay type: cell-based
Description: In vitro testing: One-ml aliquots of uterine discharge from a cow with confirmed metritis were collected and diluted with 1 ml of water. The aliquots were incubated for 30 minutes at 37° C. either in the presence of 7.0% carbamide peroxide (test) or in the absence of carbamide peroxide (control). Bacteria from each treatment were washed and centrifuged, reconstituted in media, and plated on suitable culture media plates. The plates were incubated for three days. […] A similar experiment was conducted using urea in place of carbamide peroxide. The concentration of urea used was 11.3%. This is the equivalent amount of urea found in 4 urea boluses per 16 ounces of water, which is recommended for in vivo treatment using commercially available urea boluses.

[2] = test system: postpartum cows with retained placenta; test: Clinical trials of intrauterine bolus in cows having retained placenta; assay type: in vivo; conditions: single bolus containing 3.5 grams carbamide peroxide inserted in the uterus
Description: Efficacy of carbamide peroxide administration in treating retained placenta was tested in clinical trials with cows having retained placenta. A single bolus containing 3.5 grams carbamide peroxide was inserted in the uterus of postpartum cows with retained placenta.

[3] = test system: cows diagnosed with metritis; test: Clinical trials of intrauterine bolus in cows diagnosed with metritis; assay type: in vivo; conditions: single bolus containing 3.5 grams carbamide peroxide inserted in the uterus
Description: Efficacy of carbamide peroxide administration for treating metritis was tested in clinical trials with cows diagnosed with metritis. A single bolus containing 3.5 grams carbamide peroxide was inserted in the uterus of cows showing metritis symptoms such as foul uterine discharge. […] As no antibiotics were required in these cases, no milk had to be discarded. Because no milk was discarded, full financial benefit to the farmer was received for selling more milk than would have occurred if milk had to be discarded due to the presence of antibiotics. […] This indicates the carbamide peroxide administration is safe for use for the long term health of the cow and helps reduce subsequent reproduction failures.

[4] = test system: cow diagnosed with severe metritis and vaginitis; test: Uterine flush (wash format) in a cow with severe metritis and vaginitis; assay type: in vivo; conditions: two boluses comprising 3.5 g carbamide peroxide dissolved in 1 quart of water, uterus flushed; cow 5 days after calving
Description: Efficacy of carbamide peroxide administration in a wash format was tested with a cow diagnosed with severe metritis and vaginitis. A cow that had calved 5 days previously presented a foul smelling uterine discharge. Upon clinical examination, it was discovered that remnants of the placenta were still in the uterus and that the animal was off feed. Antibiotics were not preferred for treatment, as sale of milk from the cow was very important. (Antibiotic residue in milk is not permitted if sale of milk is to occur.) Two boluses comprising 3.5 g carbamide peroxide were dissolved in 1 quart of water, and the uterus of the cow was flushed out with the flush. Within 24-48 hours, the uterine discharge had cleared, the cow was on feed again, and placental remnants were gone. The animal was able to be milked easier than prior to treatment, and the cow was returned to normal service in good health. As no antibiotics were used, the milk was not required to be discarded, and the owner was able to make financial gain from the sale of the milk.

Row | Structure (SMILES) | bacteria colonies on culture plates after treatment ([1]; 7.0% carbamide peroxide, 30 minutes at 37° C., plates incubated three days, control plates had hundreds of colonies) | foul uterine discharge after treatment [2] | shedding of retained placenta [2] | feed intake during the treatment [3] | need for follow-up with antibiotics [3] | subsequent conception and calving (long-term safety) [3] | uterine discharge (metritis symptom) [3] | time until uterine discharge had cleared, cow on feed again, placental remnants gone [4] [h] | bacteria colonies on culture plates after treatment ([1]; 11.3% urea in place of carbamide peroxide, similar experiment)
1 | NC(N)=O.OO [carbamide peroxide] | no colonies were found | no foul uterine discharge | The next day, the retained placenta was shed naturally | did not go off feed | No follow-up with antibiotics were required | subsequently conceived safely and had healthy calves | improved and reduced quickly | 24 to 48 | –
2 | NC(N)=O [urea, reference compound] | – | – | – | – | – | – | – | – | several bacterial colonies still being present
